# In publication PMC12291762 (Antioxidants, 2025):
# Experiments:
# [1] = target: T1, COX-2 (Homo sapiens, UniProt P35354); experiment: Fluorometric COX-2 inhibitor screening kit; format: biochemical; conditions: mean ± standard error, three independent measurements
# T1 construct: purchased Abcam ab283401
# T1 sequence (P35354 18-604): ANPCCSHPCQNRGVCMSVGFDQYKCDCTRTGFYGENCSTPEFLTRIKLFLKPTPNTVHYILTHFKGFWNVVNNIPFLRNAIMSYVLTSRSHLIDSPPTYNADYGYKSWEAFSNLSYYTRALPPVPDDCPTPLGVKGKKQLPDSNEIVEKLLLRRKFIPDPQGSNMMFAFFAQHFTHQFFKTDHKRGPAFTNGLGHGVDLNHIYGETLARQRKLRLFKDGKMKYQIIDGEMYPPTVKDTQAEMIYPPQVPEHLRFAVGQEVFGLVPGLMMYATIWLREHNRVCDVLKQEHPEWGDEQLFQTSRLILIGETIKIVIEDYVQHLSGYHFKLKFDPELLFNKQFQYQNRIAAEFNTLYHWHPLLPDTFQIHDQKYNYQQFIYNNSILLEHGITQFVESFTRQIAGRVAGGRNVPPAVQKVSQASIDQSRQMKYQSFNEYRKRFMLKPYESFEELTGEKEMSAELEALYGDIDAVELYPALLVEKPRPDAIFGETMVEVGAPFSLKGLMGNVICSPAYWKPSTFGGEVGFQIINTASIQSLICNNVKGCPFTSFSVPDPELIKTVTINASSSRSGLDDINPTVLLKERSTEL
# Procedure: The inhibitory activity of the tested compounds against COX-1 and COX-2 isoforms was assessed using fluorometric cyclooxygenase inhibitor screening kits (Catalog Numbers ab204698 and ab283401, respectively; Abcam, Cambridge, UK). These assays detect the formation of prostaglandin G2, a product of COX enzymatic activity, via fluorometric measurement.
# Stock solutions of the test compounds were prepared at a concentration of 5 mM in DMSO and subsequently diluted with the same solvent to obtain the test solutions. For the assay preparation, 2 μL of each test solution was diluted with 8 μL of COX assay buffer. The solvent control (SC) consisted of 2 μL of DMSO and 8 μL of assay buffer, while the enzyme control (EC) contained 10 μL of assay buffer alone. Sample wells (S) received 10 μL of the diluted test solutions. All other steps were in accordance with the manufacturer’s protocol and the previously published article. Fluorescence was measured kinetically over a 10 min period at 25 °C, using the excitation and emission wavelengths of 535 nm and 587 nm, respectively. The percentage of inhibition was calculated as follows:(3) % Relative Inhibition=Slope of EC−Slope of S/Slope of EC×100
# Fluorescence measurements were conducted on a BioTek Synergy LX multi-mode reader (Winooski, VT, USA).
# [2] = test system: systemic oxidative stress parameters; experiment: Systemic redox state (plasma, erythrocyte lysate) 24 h after carrageenan; format: in vivo, Wistar albino rats
# Procedure: Following 24 h of carrageenan-induced paw edema inflammation model and intraperitoneal anesthesia induced by ketamine/xylazine (100/10 mg/kg of BW), the animals were sacrificed, while whole-blood samples and edema-affected paw tissues were isolated. After centrifugation of whole blood, plasma and erythrocyte lysate samples were separated for further examination of the applied compounds’ effects on the systemic redox balance state. Pro-oxidative markers including superoxide anion radical (O2∙^−), hydrogen peroxide (H2O2) nitrites (NO2^−), and index of lipid peroxidation measured as thiobarbituric acid (TBA) reactive substances (TBARS) were determined from plasma samples, while the antioxidant capacity, including superoxide dismutase (SOD) and catalase (CAT) activity, as well as the reduced glutathione (GSH) level were examined in erythrocyte lysate samples [46]. […] Edema-affected paw tissue samples were weighed (100 mg) and homogenized (OmniPrep™ multi-sample homogenizer, Omni International, Kennesaw, GA, USA) in 900 µL phosphate buffer on ice (pH = 7.4), and centrifuged at 12,000 rpm for 20 min. These supernatant samples were used for the determination of the aforementioned pro-oxidative and antioxidative parameters levels. All oxidative stress analyses were performed spectrophotometrically using a Shimadzu UV 1800 spectrophotometer (Kyoto, Japan).
# Determination of the O2∙^− level was conducted by adding 950 µL of a Nitro Blue Tetrazolium (NBT) mixture with TRIS buffer in 50 µL of sample, measured at the 550 nm wavelength. The level of H2O2 was determined during the oxidation of phenol red by H2O2, which was catalyzed with horseradish peroxidase and measured at the 610 nm wavelength. Indirect measurement of nitrites was performed by the precipitation of samples with 30% sulfo-salicylic acid, followed by vortexing and centrifugation at 3000 rpm for 15 min. The equal volumes of isolated supernatant and Griess’ reagent (containing 1% sulfanilamide in 5% phosphoric acid/0.1% naphthalene ethylenediamine-dihydrochloride) were incubated for 10 min and measured at the 550 nm wavelength. The TBARS concentration was determined by adding 400 µL of sample to 200 µL of TBA in 0.05 M NaOH, followed by 15 min incubation at 100 °C. Measurement was performed at the 530 nm wavelength.
# The epinephrine method was used for SOD determination. By adding 100 µL of sample, the same volume of epinephrine, and 1000 µL of carbonate buffer, the measurement was performed at the 470 nm wavelength. The determination of CAT activity was based on the preparation of a mixture containing 100 µL of sample, 50 µL of catalase buffer, and 1000 µL of 10 mM H2O2, which was measured at the 230 nm wavelength.
IC50 [1],Compound,Systemic CAT activity compared to Dex group ([2]; erythrocyte lysate),Systemic GSH level compared to Dex group ([2]; erythrocyte lysate),Systemic SOD activity compared to Dex group ([2]; erythrocyte lysate),Systemic O2∙− level compared to Dex group ([2]; plasma),Systemic TBARS level compared to Dex group ([2]; plasma),Systemic GSH level compared to untreated rats ([2]; erythrocyte lysate),Systemic O2∙− level compared to untreated (Sol) rats ([2]; plasma),Systemic H2O2 level compared to Dex group ([2]; plasma),Systemic TBARS level compared to Sol (untreated) rats ([2]; plasma)
37.5 ± 3.43 µM,"C[C@H](C(=O)N[C@@H](Cc1c[nH]c2ccccc12)C(=O)O)c1cccc(C(=O)c2ccccc2)c1 [Compound 4, ((S)-2-(3-benzoylphenyl)propanoyl)-L-tryptophan]",decreased this enzyme activity,significantly reduced,significantly lower activity,significantly higher concentration,"dexketoprofen injection significantly decreased the TBARS concentration compared to the Sol group, as well as rats treated with compounds 1, 3, and 4",,,,
> 100 µM,"C[C@H](NC(=O)[C@@H](C)c1cccc(C(=O)c2ccccc2)c1)C(=O)O [Compound 2, ((S)-2-(3-benzoylphenyl)propanoyl)-L-alanine]",highest potential to increase CAT activity,,no statistical differences,no significant difference,,significantly increased GSH level,significantly lower,,
> 100 µM,"C[C@H](C(=O)NCCCC(=O)O)c1cccc(C(=O)c2ccccc2)c1 [Compound 5, (S)-4-(2-(3-benzoylphenyl)propanamido)butanoic acid]",,,no statistical differences,no significant difference,,significantly increased GSH level,significantly lower,did not differ significantly,significantly reducing
> 100 µM,"C[C@H](C(=O)N[C@@H](Cc1ccccc1)C(=O)O)c1cccc(C(=O)c2ccccc2)c1 [Compound 3, ((S)-2-(3-benzoylphenyl)propanoyl)-L-phenylalanine]",,,significantly lower activity,no significant difference,"dexketoprofen injection significantly decreased the TBARS concentration compared to the Sol group, as well as rats treated with compounds 1, 3, and 4",,significantly lower,,
> 100 µM,"C[C@H](C(=O)NCC(=O)O)c1cccc(C(=O)c2ccccc2)c1 [Compound 1, (S)-(2-(3-benzoylphenyl)propanoyl)glycine]",,,significantly lower activity,significantly higher concentration,"dexketoprofen injection significantly decreased the TBARS concentration compared to the Sol group, as well as rats treated with compounds 1, 3, and 4",,,,significantly reducing
